Results taken from patent US10906876B2, “Tetrahydroisoquinolines as selective NADPH oxidase 2 inhibitors” (University of Pittsburgh—Of the Commonwealth System of …, priority 2013, dated 2021).

Molecular target: T1, Nox1 (Homo sapiens, UniProt Q9Y5S8)
T1 construct: Plasmids encoding full-length human cDNAs for Nox1 (pcDNA3.1-hNox1); expressed in transfected cells; host or cells: COS-22 (COS-7 stably expressing human p22phox), transient co-transfection
T1 sequence (Q9Y5S8 1-564): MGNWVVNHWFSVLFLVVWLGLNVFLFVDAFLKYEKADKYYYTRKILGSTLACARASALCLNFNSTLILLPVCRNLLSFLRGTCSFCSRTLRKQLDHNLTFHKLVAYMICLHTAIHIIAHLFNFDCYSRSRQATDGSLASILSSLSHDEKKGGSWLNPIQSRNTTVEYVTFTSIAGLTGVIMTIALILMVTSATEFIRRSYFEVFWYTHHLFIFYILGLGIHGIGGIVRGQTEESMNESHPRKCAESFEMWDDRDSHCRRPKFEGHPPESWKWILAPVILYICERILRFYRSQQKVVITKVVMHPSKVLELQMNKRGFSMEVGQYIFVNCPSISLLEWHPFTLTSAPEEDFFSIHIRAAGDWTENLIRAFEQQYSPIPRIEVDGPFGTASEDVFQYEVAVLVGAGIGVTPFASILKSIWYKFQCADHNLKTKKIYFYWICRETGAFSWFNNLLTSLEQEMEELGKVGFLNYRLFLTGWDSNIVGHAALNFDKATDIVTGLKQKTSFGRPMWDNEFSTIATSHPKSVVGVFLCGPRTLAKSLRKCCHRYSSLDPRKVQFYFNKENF
T1 sequence (P13498 2-195 partner limits assumed): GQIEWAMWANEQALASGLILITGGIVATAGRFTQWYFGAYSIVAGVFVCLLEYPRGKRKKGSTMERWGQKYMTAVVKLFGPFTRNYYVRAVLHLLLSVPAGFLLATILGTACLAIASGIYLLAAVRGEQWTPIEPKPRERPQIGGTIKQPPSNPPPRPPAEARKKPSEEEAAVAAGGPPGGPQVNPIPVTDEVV
Test: Constitutive Nox1 activity in transiently transfected COS-Nox1/NOXO1/NOXA1 cells, L-012 assay
Type: cell-based
Settings: for IC50: constitutive activity, transiently transfected Cos-Nox1 cells, L-012, read-out: IC50 of ROS generation, Nox1 (L-012 assay); for Nox1 inhibitory activity: Table 2
Source text: Plasmids encoding full-length human cDNAs for Nox1 (pcDNA3.1-hNox1), NOXO1 (pcDNA3.1-hNOXO1), NOXA1 (pCMVsport 6-hNOXA1), p47phox (pCMV-Tag4A-hp47) and Nox4 (pcDNA3-hNox4) were kindly provided by Dr. David Lambeth (Emory University, Ga.). Plasmids encoding Nox1, NOXO1, or NOXA1 were transformed and amplified into Escherichia coli strain TOP10 (Invitrogen, Carlsbad, Calif.). Plasmids were purified using a QIAfilter plasmid purification kit (QIAGEN Inc., Valencia, Calif.). For human Nox4 expression, the BglII/NotI restriction fragment from the pcDNA3-hNox4 was subcloned into the plasmid pcDNA3.1/Hygro(−) (Invitrogen, Carlsbad, Calif.) to generate pcDNA3.1/Hygro-hNox4. The fragment sequence, in-frame insertion and orientation were validated by DNA sequencing after PCR amplification. pcDNA3.1/Hygro-hNox4 was amplified into Escherichia coli strain TOP10 and purified with a QIAfilter plasmid purification kit.
Cell transfection was carried out using Lipofectamine LTX and Plus reagent (Invitrogen, Carlsbad, Calif., USA), according to the manufacturer's instructions. COS-22 cells were transiently co-transfected with pcDNA 3.1-hNox1, pCMVsport 6-hNOXA1 and pcDNA3.1-hNoxO1 (COS-Nox1/NOXO1/NOXA1 cells) or with pcDNA3.1/Hygro-hNox4 (COS-Nox4 cells). Cells were used 24 hr after transfection. Adherent cells were harvested by incubating with 0.05% trypsin/EDTA for 5 min at 37° C. Following addition of DMEM/10% FBS to neutralize the trypsin, the cells were pelleted by centrifugation at 1100×g for 5 min at 4° C. and used for the experiments.
COS-Nox2, COS-Nox1/NOXO1/NOXA1, HEK-Nox5 and COS-22 cells were re-plated in OPTIMEM into 384-well white micro-plates (Greiner-Bio One GmbH, Germany) at a density of 2.5×10^3 cells/well for COS-Nox2 and 5×10^4 cells/well for all others. The cells were incubated at 37° C. in PBS containing […] L-012 for 10 min. Reaction was initiated by addition of 5 μM PMA in the case of Nox2 or 1 μM PMA/0.1 μM Ionomycin in the case of Nox5. Since Nox1 was constitutively active, Nox1-derived O2^•− was assessed by comparison to non-transfected cells (Cos22). Luminescence was quantified over time using a Biotek Synergy 4 Hybrid Multi-Mode Microplate Reader. The specificity of L-012 for O2^•− was confirmed by the addition of SOD (150 U/mL).
All data are expressed as means±SEM. IC50 values were determined using the GraphPad Prism software (GraphPad Software, San Diego, Calif.) for non-linear regression three-parameters, with constrain values of 100 and 0 for top and bottom, respectively, and assumes a Hill slope of 1.

IC50 [µM]	SMILES	Nox1 inhibitory activity
> 100	C=C(C)CC1NC2CC(C)(C)C1c1c(-c3ccc(Cl)c(Cl)c3)cccc12 (racemic) [Compound 12a, (±)-(1S,4R,9S)-5-(3,4-Dichlorophenyl)-3,3-dimethyl-9-(2-methylallyl)-1,2,3,4-tetrahydro-1,4-(epiminomethano)naphthalene]	–
> 100	C=C(C)CC1C2c3c(-c4ccc(Cl)c(Cl)c4)cccc3C(CC2(C)C)N1CCCCC (racemic) [Compound 12c]	–
> 100	C=C(C)CC1C2c3c(Br)cccc3C(CC2(C)C)N1Cc1cccs1 (racemic) [Compound 11h, (±)-(1S,4R,9S)-5-Bromo-3,3-dimethyl-9-(2-methylallyl)-10-(thiophen-2-ylmethyl)-1,2,3,4-tetrahydro-1,4-(epiminomethano)naphthalene]	virtually no effect
> 100	C=C(C)CC1C2c3c(Br)cccc3C(CC2(C)C)N1Cc1ccc2c(c1)OCO2 (racemic) [Compound 11d, (±)-(1S,4R,9S)-10-(Benzo[d][1,3]dioxol-5-ylmethyl)-5-bromo-3,3-dimethyl-9-(2-methylallyl)-1,2,3,4-tetrahydro-1,4-(epiminomethano)naphthalene]	–
> 100	C=C(C)CC1C2c3c(Br)cccc3C(CC2(C)C)N1Cc1cccc(F)c1 (racemic) [Compound 11f, (±)-(1S,4R,9S)-5-Bromo-10-(3-fluorobenzyl)-3,3-dimethyl-9-(2-methylallyl)-1,2,3,4-tetrahydro-1,4-(epiminomethano)naphthalene]	–
> 100	C=C(C)CC1C2c3c(-c4ccc(Cl)c(Cl)c4)cccc3C(CC2(C)C)N1Cc1ccc2c(c1)OCO2 (racemic) [Compound 12b, (±)-(1S,4R,9S)-10-(Benzo[d][1,3]dioxol-5-ylmethyl)-5-(3,4-dichlorophenyl)-3,3-dimethyl-9-(2-methylallyl)-1,2,3,4-tetrahydro-1,4-(epiminomethano)-naphthalene]	–
> 100	C=C(C)CC1C2c3c(Br)cccc3C(CC2(C)C)N1Cc1ccnc2ccccc12 (racemic) [Compound 11b, (±)-(1S,4R,9S)-5-Bromo-3,3-dimethyl-9-(2-methylallyl)-10-(quinolin-4-ylmethyl)-1,2,3,4-tetra-hydro-1,4-(epiminomethano)naphthalene]	–
> 100	C=C(C)CC1C2c3c(Br)cccc3C(CC2(C)C)N1Cc1c[nH]c2ccccc12 (racemic) [Compound 11c, (±)-(1S,4R,9S)-10-((1H-Indol-3-yl)methyl)-5-bromo-3,3-dimethyl-9-(2-methylallyl)-1,2,3,4-tetrahydro-1,4-(epiminomethano)naphthalene]	–
> 100	C=C(C)CC1C2c3ccccc3C(CC2(C)C)N1Cc1cccc(F)c1 (racemic) [Compound 11a, (±)-(1S,4R,9S)-10-(3-Fluorobenzyl)-3,3-dimethyl-9-(2-methylallyl)-1,2,3,4-tetrahydro-1,4-(epiminomethano)naphthalene]	–
> 100	C=C(C)CC1C2c3c(Br)cccc3C(CC2(C)C)N1S(C)(=O)=O (racemic) [Compound 14a, (±)-(1S,4R,9S)-5-Bromo-3,3-dimethyl-9-(2-methylallyl)-10-(methylsulfonyl)-1,2,3,4-tetrahydro-1,4-(epiminomethano)naphthalene]	–
> 100	C=C(C)CC1C2c3c(Br)cccc3C(CC2(C)C)N1Cc1cc(C)on1 (racemic) [Compound 11e, (±)-3-(1S,4R,9S)-5-Bromo-3,3-dimethyl-9-(2-methylallyl)-1,2,3,4-tetrahydro-1,4-(epimino-methano) naphthalen-10-yl)methyl)-5-methylisoxazole]	–
> 100	C=C(C)CC1C2c3c(Br)cccc3C(CC2(C)C)N1CCCCC (racemic) [Compound 11g, (±)-(1S,4R,9S)-5-Bromo-3,3-dimethyl-9-(2-methylallyl-10-pentyl-1,2,3,4-tetrahydro-1,4-(epiminomethano)naphthalene]	virtually no effect
> 100	C=C(C)CC1C2c3c(Br)cccc3C(CC2(C)C)N1S(=O)(=O)c1ccc(F)cc1 (racemic) [Compound 14b, (±)-(1S,4R,9S)-5-Bromo-10-((4-fluorophenyl)sulfonyl)-3,3-dimethyl-9-(2-methylallyl)-1,2,3,4-tetrahydro-1,4-(epiminomethano)naphthalene]	–

SMILES	IC50 [µM]	Nox1 inhibitory activity
CC(C)CC1NC2CC(C)(C)C1c1c(Br)cccc12 (racemic) [Compound 13]	32 ± 18	retained inhibitory activity
C=C(C)CC1NC2CC(C)(C)C1c1c(Br)cccc12 (racemic) [Compound 7, (±)-(1S,4R,9S)-5-Bromo-3,3-dimethyl-9-(2-methylallyl)-1,2,3,4-tetrahydro-1,4-(epimino-methano)-naphthalene]	31 ± 0.7	active
C=C(C)CC1NC2CC(C)(C)C1c1ccccc12 (racemic) [Compound 8, (±)-(1S,4R,9S)-3,3-Dimethyl-9-(2-methylallyl)-1,2,3,4-tetrahydro-1,4-(epiminomethano)-naphthalene]	> 100	inactive
C=C(C)C[C@@H]1N[C@H]2CC(C)(C)[C@@H]1c1c(Br)ccc(Br)c12 [Compound 9]	60 ± 36	active
